Test results reported in patent US10344060B2 (priority 2013, dated 2019).
“And” between values parts separate entries of the source, which are not always exact repeats. Equal entries are not always repeated.

What was measured:
hNav1.4 = hNav1.4 (Homo sapiens, UniProt P35499); assay: cell-based; format: cell-based; details: for Nav1.4/Nav1.7: ratio of PX tonic IC50 values
hNav1.7 = hNav1.7 (Homo sapiens, UniProt Q15858); assay: cell-based; format: cell-based; details: ratio of PX tonic IC50 values; Table 11
Chain of hNav1.7 (Q15858 whole entry): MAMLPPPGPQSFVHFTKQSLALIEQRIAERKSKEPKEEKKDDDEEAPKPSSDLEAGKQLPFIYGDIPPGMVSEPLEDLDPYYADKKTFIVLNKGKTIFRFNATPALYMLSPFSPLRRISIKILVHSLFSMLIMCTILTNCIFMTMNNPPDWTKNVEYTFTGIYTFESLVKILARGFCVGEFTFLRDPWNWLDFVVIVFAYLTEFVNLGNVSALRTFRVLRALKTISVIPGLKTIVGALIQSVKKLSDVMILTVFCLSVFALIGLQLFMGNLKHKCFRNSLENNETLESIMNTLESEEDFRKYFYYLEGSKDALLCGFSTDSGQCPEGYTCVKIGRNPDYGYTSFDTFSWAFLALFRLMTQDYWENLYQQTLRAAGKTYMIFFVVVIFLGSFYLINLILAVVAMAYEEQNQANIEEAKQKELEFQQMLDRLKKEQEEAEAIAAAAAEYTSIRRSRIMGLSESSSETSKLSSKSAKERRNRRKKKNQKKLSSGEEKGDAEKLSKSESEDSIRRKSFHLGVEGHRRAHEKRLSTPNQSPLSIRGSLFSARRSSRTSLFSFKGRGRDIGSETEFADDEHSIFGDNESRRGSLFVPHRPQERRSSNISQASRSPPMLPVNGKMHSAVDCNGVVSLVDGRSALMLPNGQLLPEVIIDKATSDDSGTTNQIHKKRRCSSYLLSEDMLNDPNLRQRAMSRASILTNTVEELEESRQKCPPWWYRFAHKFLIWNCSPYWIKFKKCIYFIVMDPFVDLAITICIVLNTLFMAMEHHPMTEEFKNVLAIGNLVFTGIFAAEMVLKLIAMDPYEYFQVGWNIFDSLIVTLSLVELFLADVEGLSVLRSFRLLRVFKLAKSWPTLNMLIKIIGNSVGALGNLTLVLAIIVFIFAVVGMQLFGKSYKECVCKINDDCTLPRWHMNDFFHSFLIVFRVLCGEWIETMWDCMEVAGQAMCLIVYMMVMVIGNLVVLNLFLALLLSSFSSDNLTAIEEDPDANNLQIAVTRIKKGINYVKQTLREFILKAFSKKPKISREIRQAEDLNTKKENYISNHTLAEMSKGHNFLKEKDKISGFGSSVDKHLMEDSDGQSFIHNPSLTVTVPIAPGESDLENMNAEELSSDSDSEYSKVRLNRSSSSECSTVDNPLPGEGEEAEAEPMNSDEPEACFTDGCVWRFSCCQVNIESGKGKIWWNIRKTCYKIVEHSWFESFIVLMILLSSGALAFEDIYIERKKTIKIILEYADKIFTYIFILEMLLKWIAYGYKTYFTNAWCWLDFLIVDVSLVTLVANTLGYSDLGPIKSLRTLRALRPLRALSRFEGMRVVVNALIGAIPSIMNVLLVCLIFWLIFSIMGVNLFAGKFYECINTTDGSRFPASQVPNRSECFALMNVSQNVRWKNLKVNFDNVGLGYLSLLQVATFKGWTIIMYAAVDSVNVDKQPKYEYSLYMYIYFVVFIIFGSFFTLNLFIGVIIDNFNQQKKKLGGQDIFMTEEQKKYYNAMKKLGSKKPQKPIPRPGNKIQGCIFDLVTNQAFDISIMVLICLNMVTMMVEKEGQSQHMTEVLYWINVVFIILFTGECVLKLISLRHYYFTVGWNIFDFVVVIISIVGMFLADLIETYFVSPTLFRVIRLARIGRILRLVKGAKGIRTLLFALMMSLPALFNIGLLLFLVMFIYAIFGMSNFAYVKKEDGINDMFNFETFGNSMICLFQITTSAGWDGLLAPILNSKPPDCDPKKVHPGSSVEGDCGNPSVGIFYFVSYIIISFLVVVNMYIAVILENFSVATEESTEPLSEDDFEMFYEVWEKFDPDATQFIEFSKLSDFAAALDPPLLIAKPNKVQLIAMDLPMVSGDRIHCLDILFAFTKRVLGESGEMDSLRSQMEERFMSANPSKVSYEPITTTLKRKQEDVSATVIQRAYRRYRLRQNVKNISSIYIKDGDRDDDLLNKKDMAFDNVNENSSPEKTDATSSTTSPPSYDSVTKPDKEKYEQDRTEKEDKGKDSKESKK

Chain of hNav1.4 (P35499 whole entry): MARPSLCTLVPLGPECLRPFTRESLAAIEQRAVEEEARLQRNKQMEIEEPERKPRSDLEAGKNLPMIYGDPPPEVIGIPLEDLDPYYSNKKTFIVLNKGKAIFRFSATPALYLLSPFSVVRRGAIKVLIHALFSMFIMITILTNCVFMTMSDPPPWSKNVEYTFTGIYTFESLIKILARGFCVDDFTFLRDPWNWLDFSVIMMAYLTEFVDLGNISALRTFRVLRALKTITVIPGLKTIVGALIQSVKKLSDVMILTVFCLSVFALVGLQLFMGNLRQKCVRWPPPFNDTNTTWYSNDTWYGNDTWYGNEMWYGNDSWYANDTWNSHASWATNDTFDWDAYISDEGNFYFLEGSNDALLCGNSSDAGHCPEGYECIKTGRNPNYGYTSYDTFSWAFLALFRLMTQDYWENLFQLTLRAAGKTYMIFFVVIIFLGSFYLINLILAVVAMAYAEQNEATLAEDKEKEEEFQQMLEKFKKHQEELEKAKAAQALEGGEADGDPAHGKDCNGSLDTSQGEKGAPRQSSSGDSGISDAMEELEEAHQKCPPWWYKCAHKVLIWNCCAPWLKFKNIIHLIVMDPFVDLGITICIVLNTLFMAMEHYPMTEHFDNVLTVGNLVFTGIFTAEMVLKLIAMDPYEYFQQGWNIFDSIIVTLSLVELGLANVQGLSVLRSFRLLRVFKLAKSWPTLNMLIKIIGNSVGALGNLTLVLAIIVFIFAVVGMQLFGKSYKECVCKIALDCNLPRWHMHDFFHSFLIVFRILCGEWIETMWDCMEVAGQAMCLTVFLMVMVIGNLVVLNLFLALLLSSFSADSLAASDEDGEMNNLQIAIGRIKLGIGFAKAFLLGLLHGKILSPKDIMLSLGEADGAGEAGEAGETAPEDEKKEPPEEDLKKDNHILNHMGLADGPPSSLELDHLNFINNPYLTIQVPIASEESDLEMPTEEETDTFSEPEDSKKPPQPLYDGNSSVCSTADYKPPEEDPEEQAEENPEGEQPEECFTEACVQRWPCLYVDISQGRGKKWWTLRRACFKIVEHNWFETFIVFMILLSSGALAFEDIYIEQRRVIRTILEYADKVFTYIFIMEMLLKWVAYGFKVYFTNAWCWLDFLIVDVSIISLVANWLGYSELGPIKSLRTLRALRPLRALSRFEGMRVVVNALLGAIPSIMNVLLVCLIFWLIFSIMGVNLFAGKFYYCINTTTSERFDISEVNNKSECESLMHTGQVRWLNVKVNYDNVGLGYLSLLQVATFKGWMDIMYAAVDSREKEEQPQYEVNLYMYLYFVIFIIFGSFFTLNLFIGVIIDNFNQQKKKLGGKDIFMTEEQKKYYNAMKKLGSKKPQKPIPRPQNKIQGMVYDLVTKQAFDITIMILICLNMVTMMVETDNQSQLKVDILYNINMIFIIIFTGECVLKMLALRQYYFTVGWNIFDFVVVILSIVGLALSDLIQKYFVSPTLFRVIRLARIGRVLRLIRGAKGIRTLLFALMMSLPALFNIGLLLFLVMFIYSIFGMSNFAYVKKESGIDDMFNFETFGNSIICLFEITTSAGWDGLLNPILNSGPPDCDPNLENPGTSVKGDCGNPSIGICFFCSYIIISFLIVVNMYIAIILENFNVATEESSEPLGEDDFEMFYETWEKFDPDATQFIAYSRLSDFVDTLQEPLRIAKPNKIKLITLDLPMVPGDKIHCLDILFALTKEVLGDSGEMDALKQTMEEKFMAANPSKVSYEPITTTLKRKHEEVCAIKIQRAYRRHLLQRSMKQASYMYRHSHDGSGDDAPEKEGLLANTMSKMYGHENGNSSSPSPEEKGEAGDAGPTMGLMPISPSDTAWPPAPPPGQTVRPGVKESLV

## C#CC[C@H](N)C(=O)NCCCC[C@@H]1NC(=O)[C@H](CCCNC(=N)N)NC(=O)[C@H](CCCCN)NC(=O)[C@H](CO)NC(=O)[C@H](CC(=O)O)NC(=O)[C@@H]2CSSC[C@@H]3NC(=O)[C@H](CCCNC(=N)N)NC(=O)[C@H](CC(C)C)NC(=O)CNC(=O)[C@H](CCC(=O)O)NC(=O)[C@H](CSSC[C@H](NC(=O)[C@H](Cc4ccc(O)cc4)NC(=O)[C@@H](N)CCC)C(=O)N[C@@H](CCC(N)=O)C(=O)N[C@@H](CCCCN)C(=O)N[C@@H](Cc4c[nH]c5ccccc45)C(=O)N[C@@H](CC(C)C)C(=O)N[C@@H](Cc4c[nH]c5ccccc45)C(=O)N[C@@H]([C@@H](C)O)C(=O)N2)NC(=O)[C@H](CSSC[C@@H](C(=O)N[C@@H](CCCNC(=N)N)C(=O)N[C@@H](CCCCN)C(=O)N[C@@H](CCC(=O)O)C(=O)N[C@H](C(N)=O)[C@@H](C)CC)NC(=O)[C@H](Cc2c[nH]c4ccccc24)NC(=O)[C@H](CC(C)C)NC(=O)[C@H](CCCCN)NC3=O)NC1=O [compound 439]
hNav1.4; Table 12, PatchXpress, tonic block, read-out: PX hNav1.4 Tonic IC50
  IC50: 300 nM

## CCCC[C@@H]1NC(=O)[C@H](Cc2c[nH]c3ccccc23)NC(=O)[C@H](CCCCN)NC(=O)[C@H](CCC(N)=O)NC(=O)[C@@H](NC(=O)[C@@H](N)Cc2ccc(O)cc2)CSSC[C@@H]2NC(=O)[C@@H]3CSSC[C@@H](C(=O)N[C@@H](CCCNC(=N)N)C(=O)N[C@@H](CCCCN)C(=O)N[C@@H](CCC(=O)O)C(=O)N[C@H](C(N)=O)[C@@H](C)CC)NC(=O)[C@H](Cc4c[nH]c5ccccc45)NC(=O)[C@H](CC(C)C)NC(=O)[C@H](CCCCN)NC(=O)[C@H](CSSC[C@H](NC(=O)[C@H]([C@@H](C)O)NC(=O)[C@H](Cc4c[nH]c5ccccc45)NC1=O)C(=O)N[C@@H](CC(=O)O)C(=O)N[C@@H](CO)C(=O)N[C@@H](CCCCN)C(=O)N[C@@H](CCCNC(=N)N)C(=O)N[C@@H](C)C(=O)N3)NC(=O)[C@H](CCCNC(=N)N)NC(=O)[C@H](CC(C)C)NC(=O)CNC(=O)[C@H](Cc1cn(CCCOCCOCCOCCOCCOCCOCCOCCOCCOCCOCCN)nn1)NC2=O [compound 406]
hNav1.4; Table 13
  Nav1.4/Nav1.7: 11

## C#CC[C@H](N)C(=O)NCCCC[C@@H]1NC(=O)[C@H](CCCNC(=N)N)NC(=O)[C@H](CCCCN)NC(=O)[C@H](CO)NC(=O)[C@H](CC(=O)O)NC(=O)[C@@H]2CSSC[C@@H]3NC(=O)[C@H](CCCNC(=N)N)NC(=O)[C@H](CC(C)C)NC(=O)CNC(=O)[C@H](CCC(=O)O)NC(=O)[C@H](CSSC[C@H](NC(=O)[C@H](Cc4ccc(O)cc4)NC(=O)[C@@H](N)CCC)C(=O)N[C@@H](CCC(N)=O)C(=O)N[C@@H](CCCCN)C(=O)N[C@@H](Cc4c[nH]c5ccccc45)C(=O)N[C@@H](CCCC)C(=O)N[C@@H](Cc4c[nH]c5ccccc45)C(=O)N[C@@H]([C@@H](C)O)C(=O)N2)NC(=O)[C@H](CSSC[C@@H](C(=O)N[C@@H](CCCNC(=N)N)C(=O)N[C@@H](CCCCN)C(=O)N[C@@H](CCC(=O)O)C(=O)N[C@H](C(N)=O)[C@@H](C)CC)NC(=O)[C@H](Cc2c[nH]c4ccccc24)NC(=O)[C@H](CC(C)C)NC(=O)[C@H](CCCCN)NC3=O)NC1=O [compound 435]
hNav1.4; Table 12
  Nav1.4/Nav1.7: 99

## CCCC[C@@H]1NC(=O)[C@H](Cc2c[nH]c3ccccc23)NC(=O)[C@H](CCCCN)NC(=O)[C@H](CCC(N)=O)NC(=O)[C@@H](NC(=O)[C@H](Cc2ccc(O)cc2)NC(=O)[C@@H](N)Cc2cn(CCOCCOCCOCCOCCOCCOCCOCCOCCOCCOCCN)nn2)CSSC[C@@H]2NC(=O)[C@@H]3CSSC[C@@H](C(=O)N[C@@H](CCCNC(=N)N)C(=O)N[C@@H](CCCCN)C(=O)N[C@@H](CCC(=O)O)C(=O)N[C@H](C(N)=O)[C@@H](C)CC)NC(=O)[C@H](Cc4c[nH]c5ccccc45)NC(=O)[C@H](CC(C)C)NC(=O)[C@H](CCCCN)NC(=O)[C@H](CSSC[C@H](NC(=O)[C@H]([C@@H](C)O)NC(=O)[C@H](Cc4c[nH]c5ccccc45)NC1=O)C(=O)N[C@@H](CC(=O)O)C(=O)N[C@@H](CO)C(=O)N[C@@H](CCCCN)C(=O)N[C@@H](CCCNC(=N)N)C(=O)N[C@@H](C)C(=O)N3)NC(=O)[C@H](CCCNC(=N)N)NC(=O)[C@H](CC(C)C)NC(=O)CNC(=O)[C@H](CCC(=O)O)NC2=O [compound 883]
hNav1.4; Table 13
  Nav1.4/Nav1.7: 120

## C#CC[C@H](N)C(=O)NCCOCCOCCOCCOCCC(=O)NCCCC[C@@H]1NC(=O)[C@H](CCCNC(=N)N)NC(=O)[C@H](CCCCN)NC(=O)[C@H](CO)NC(=O)[C@H](CC(=O)O)NC(=O)[C@@H]2CSSC[C@@H]3NC(=O)[C@H](CCCNC(=N)N)NC(=O)[C@H](CC(C)C)NC(=O)CNC(=O)[C@H](CCC(=O)O)NC(=O)[C@H](CSSC[C@H](NC(=O)[C@H](Cc4ccc(O)cc4)NC(=O)[C@@H](N)CCC)C(=O)N[C@@H](CCC(N)=O)C(=O)N[C@@H](CCCCN)C(=O)N[C@@H](Cc4c[nH]c5ccccc45)C(=O)N[C@@H](CCCC)C(=O)N[C@@H](Cc4c[nH]c5ccccc45)C(=O)N[C@@H]([C@@H](C)O)C(=O)N2)NC(=O)[C@H](CSSC[C@@H](C(=O)N[C@@H](CCCNC(=N)N)C(=O)N[C@@H](CCCCN)C(=O)N[C@H](C(=O)N[C@H](C(N)=O)[C@@H](C)CC)[C@@H](C)CC)NC(=O)[C@H](Cc2c[nH]c4ccccc24)NC(=O)[C@H](CC(C)C)NC(=O)[C@H](CCCCN)NC3=O)NC1=O [compound 432]
hNav1.4; Table 12
  Nav1.4/Nav1.7: 12

## CCCC[C@@H]1NC(=O)[C@H](Cc2c[nH]c3ccccc23)NC(=O)[C@H](CCCCN)NC(=O)[C@H](CCC(N)=O)NC(=O)[C@@H](NC(=O)[C@H](Cc2ccc(O)cc2)NC(=O)[C@@H](N)Cc2cn(CCOCCOCCOCCOCCOCCOCCOCCOCCOCCOCCOCCOCCOCCOCCOCCOCCOCCOCCOCCOCCOCCOCCOCCNC(=O)c3cc(CNC(=O)CSCc4ccccc4)cc(C(=O)NCCOCCOCCOCCOCCOCCOCCOCCOCCOCCOCCOCCOCCOCCOCCOCCOCCOCCOCCOCCOCCOCCOCCOCCn4cc(C[C@H](N)C(=O)N[C@@H](Cc5ccc(O)cc5)C(=O)N[C@H]5CSSC[C@@H]6NC(=O)[C@@H]7CSSC[C@@H](C(=O)N[C@@H](CCCNC(=N)N)C(=O)N[C@@H](CCCCN)C(=O)N[C@H](C(=O)N[C@H](C(N)=O)[C@@H](C)CC)[C@@H](C)CC)NC(=O)[C@H](Cc8c[nH]c9ccccc89)NC(=O)[C@H](CC(C)C)NC(=O)[C@H](CCCCN)NC(=O)[C@H](CSSC[C@H](NC(=O)[C@H]([C@@H](C)O)NC(=O)[C@H](Cc8c[nH]c9ccccc89)NC(=O)[C@H](CCCC)NC(=O)[C@H](Cc8c[nH]c9ccccc89)NC(=O)[C@H](CCCCN)NC(=O)[C@H](CCC(N)=O)NC5=O)C(=O)N[C@@H](CC(=O)O)C(=O)N[C@@H](CO)C(=O)N[C@@H](CCCCN)C(=O)N[C@@H](CCCNC(=N)N)C(=O)N[C@@H](C)C(=O)N7)NC(=O)[C@H](CCCNC(=N)N)NC(=O)[C@H](CC(C)C)NC(=O)CNC(=O)[C@H](CCC(=O)O)NC6=O)nn4)c3)nn2)CSSC[C@@H]2NC(=O)[C@@H]3CSSC[C@@H](C(=O)N[C@@H](CCCNC(=N)N)C(=O)N[C@@H](CCCCN)C(=O)N[C@H](C(=O)N[C@H](C(N)=O)[C@@H](C)CC)[C@@H](C)CC)NC(=O)[C@H](Cc4c[nH]c5ccccc45)NC(=O)[C@H](CC(C)C)NC(=O)[C@H](CCCCN)NC(=O)[C@H](CSSC[C@H](NC(=O)[C@H]([C@@H](C)O)NC(=O)[C@H](Cc4c[nH]c5ccccc45)NC1=O)C(=O)N[C@@H](CC(=O)O)C(=O)N[C@@H](CO)C(=O)N[C@@H](CCCCN)C(=O)N[C@@H](CCCNC(=N)N)C(=O)N[C@@H](C)C(=O)N3)NC(=O)[C@H](CCCNC(=N)N)NC(=O)[C@H](CC(C)C)NC(=O)CNC(=O)[C@H](CCC(=O)O)NC2=O [Homodimeric Conjugate No. 2, Bis-{Atz(PEG23*)-[Nle6]JzTx-V(1-29)}-5-((2-(benzylthio)acetamido)methyl)isophthalamide]
hNav1.4; Table 13
  Nav1.4/Nav1.7: 5 and 3

## CCCC[C@@H]1NC(=O)[C@H](Cc2c[nH]c3ccccc23)NC(=O)[C@H](CCCCN)NC(=O)[C@H](CCC(N)=O)NC(=O)[C@@H](NC(=O)[C@@H](N)Cc2cn(CCCOCCOCCOCCOCCOCCOCCOCCOCCOCCOCCN)nn2)CSSC[C@@H]2NC(=O)[C@@H]3CSSC[C@@H](C(=O)N[C@@H](CCCNC(=N)N)C(=O)N[C@@H](CCCCN)C(=O)N[C@H](C(=O)N[C@H](C(N)=O)[C@@H](C)CC)[C@@H](C)CC)NC(=O)[C@H](Cc4c[nH]c5ccccc45)NC(=O)[C@H](CC(C)C)NC(=O)[C@H](CCCCN)NC(=O)[C@H](CSSC[C@H](NC(=O)[C@H]([C@@H](C)O)NC(=O)[C@H](Cc4c[nH]c5ccccc45)NC1=O)C(=O)N[C@@H](CC(=O)O)C(=O)N[C@@H](CO)C(=O)N[C@@H](CCCCN)C(=O)N[C@@H](CCCNC(=N)N)C(=O)N[C@@H](C)C(=O)N3)NC(=O)[C@H](CCC(=O)O)NC(=O)[C@H](CC(C)C)NC(=O)CNC(=O)[C@H](CCC(=O)O)NC2=O [compound 407]
hNav1.4; Table 13
  Nav1.4/Nav1.7: 85

## CCCC[C@@H]1NC(=O)[C@H](Cc2c[nH]c3ccccc23)NC(=O)[C@H](CCCCN)NC(=O)[C@H](CCC(N)=O)NC(=O)[C@@H](NC(=O)[C@H](Cc2ccc(O)cc2)NC(=O)[C@@H](N)CC#N)CSSC[C@@H]2NC(=O)[C@@H]3CSSC[C@@H](C(=O)N[C@@H](CCCNC(=N)N)C(=O)N[C@@H](CCCCN)C(=O)N[C@H](C(=O)N[C@@H](Cc4c[nH]c5ccccc45)C(N)=O)[C@@H](C)CC)NC(=O)[C@H](Cc4c[nH]c5ccccc45)NC(=O)[C@H](CC(C)C)NC(=O)[C@H](CCCCN)NC(=O)[C@H](CSSC[C@H](NC(=O)[C@H]([C@@H](C)O)NC(=O)[C@H](Cc4c[nH]c5ccccc45)NC1=O)C(=O)N[C@@H](CC(=O)O)C(=O)N[C@@H](CO)C(=O)N[C@@H](CCCCN)C(=O)N[C@@H](CCCNC(=N)N)C(=O)N[C@@H](C)C(=O)N3)NC(=O)[C@H](CCCCNC(=O)CCOCCOCCOCCOCCOCCOCCOCCOCCOCCOCCOCCOCCN)NC(=O)[C@H](CC(C)C)NC(=O)CNC(=O)[C@H](CCC(=O)O)NC2=O [compound 476]
hNav1.7
  Nav1.4/Nav1.7: 13
  Nav1.5/Nav1.7: 71
